Test results published in US20060079512A1, “Dibenzodiazepinone analogues, processes for their production and their use as pharmaceuticals” (Ecopia BioSciences, Inc., priority 2003, published 2006).
“Also recorded” adds a separate entry of the source. Like-named read-outs stand apart in the source and are kept apart here.

Columns and labels:
C6 glioblastoma = test: In vivo efficacy in glioma model, second series (treatment started at day 10); set-up: species or system Mus musculus nude mice; conditions: for Tumor volume (mm^3) (mean ± SEM): Q1 × 5; for % Inhibition: Q1 × 5, vs saline
Procedure: Animal experiments were performed according to ethical guidelines of animal experimentation (Charte du comité d'éthique du CNRS, juillet 2003) and the English guidelines for the welfare of animals in experimental neoplasia (WORKMAN, P., […], P., BALKWILL, F., et al. (1998). United Kingdom Coordinating Committee on Cancer Research (UKCCCR) Guidelines for the welfare of animals in experimental neoplasia (Second Edition, July 1997; British Journal of Cancer, 77:1-10). Any dead or apparently sick mice were promptly removed and replaced with healthy mice. Sick mice were euthanized upon removal from the cage. Animals were maintained in rooms under controlled conditions of temperature (23±2° C.), humidity (45±5%), photoperiodicity (12 hrs light/12 hrs dark) and air exchange. Animals were housed in polycarbonate cages (5/single cage) that were equipped to provide food and water. Animal bedding consisted of sterile wood shavings that were replaced every other day. Food was provided ad libitum, being placed in the metal lid on the top of the cage. Autoclaved tap water was provided ad libitum. Water bottles were equipped with rubber stoppers and sipper tubes. Water bottles were cleaned, sterilized and replaced once a week. Two different numbers engraved on two earrings identified the animals. Each cage was labeled with a specific code.
Tumor Cell Line: The C6 cell line was cloned from a rat glial tumor induced by N-nitrosomethyurea (NMU) according to Premont et al. (Premont J, Benda P, Jard S., [3H] norepinephrine binding by rat glial cells in culture. Lack of correlation between binding and adenylate cyclase activation. Biochim Biophys Acta. 1975 Feb. 13;381(2):368-76.) after series of alternate culture and animal passages. Cells were grown as adherent monolayers at 37° C. in a humidified atmosphere (5% CO2, 95% air). The culture medium was DMEM supplemented with 2 mM L-glutamine and 10% fetal bovine serum. For experimental use, tumor cells were detached from the culture flask by a 10 min treatment with trypsin-versen. The cells were counted in a hemocytometer and their viability assessed by 0.25% trypan blue exclusion.
Preparation of the Test Article: For the test article, the following procedure was followed for reconstitution (performed immediately preceding injection). The vehicle consisted of a mixture of benzyl alcohol (1.5%), ethanol (8.5%), propylene glycol (27%), PEG 400 (27%), dimethylacetamide (6%) and water (30%). The vehicle solution was first vortexed in order to obtain a homogeneous liquid. 0.6 mL of the vortexed vehicle solution was added to each vial containing the test article (Compound 1). Vials were mixed thoroughly by vortexing for 1 minute and inverted and shaken vigorously. Vials were mixed again prior to injection into each animal.
Animal Inoculation with tumor cells: Experiment started at day 0 (D0). On D0, mice received a superficial intramuscular injection of C6 tumor cells (5×10^5 cells) in 0.1 mL of DMEM complete medium into the upper right posterior leg.
In a second series of experiments, treatment started at day 10 following inoculation of C6 cells when tumors became palpable (around 100 to 200 mm^3). Treatment was repeated daily for 5 consecutive days. On the day of the treatment, each mouse was slowly injected with 100 μL of Compound 1 by i.p. route. Mice of group 1 were treated daily with saline isosmotic solution. Mice of group 2 were treated daily with the vehicle solution. Mice of group 3 were treated daily with 20 mg/kg of Compound 1. Mice of group 4 were treated daily with 30 mg/kg of Compound 1. Mice were treated until the tumor volume of the saline-treated control mice (group 1) reached around 4 cm^3. Tumor volume was measured every second day until the end of the treatment using callipers. […] An asterisk in the P value column of Table 20 indicates a statistically significant value, while “ns” signifies not significant.

[1] = Pharmacokinetic profile, plasma concentrations by LC/MS/MS; type: in vivo, female Crl: CD1 mice; conditions: 30 mg/kg; for half-life: plasma; for Cmax / AUC: mice plasma; for Cmax: read-out: observed Cmax
Procedure: Compounds 1 and 2 were separately dissolved in ethanol (5%), Polysorbate 80 (15%), PEG 400 (5%) and dextrose (5%) at a final concentration of 6 mg/ml (for all parenteral administration routes). For oral administration, Compound 1 was solubilized in Cremophor® EU Ethanol (50%:50%) at a final concentration of 6 mg/ml. Prior to dosing, animals (female Crl: CD1 mice; 6 weeks of age, 22-24 g) were weighed, randomly selected and assigned to the different treatment groups. Compound 1 was administered by the intravenous (iv), subcutaneous (sc), intraperitoneal (ip), or oral (po) route to the assigned animals. Compound 2 was administered by the intravenous (iv), or intraperitoneal (ip) route to the assigned animals. The dosing volume of Compounds 1 and 2 was 5 mL per kg body weight. Animals were anesthetized with 5% isoflurane prior to bleeding. Blood was collected into microtainer tubes containing the anticoagulant K2EDTA by cardiac puncture from each of 4 animals per bleeding timepoint (2 min, 5 min, 15 min, 30 min, 1 h, 2 h, 4 h and 8 h). Following collection, the samples were centrifuged and the plasma obtained from each sample was recovered and stored frozen (at approximately −80° C.) pending analysis. At the 5 min and 30 min time points, the following organs were harvested from each animal: brain, lungs, skeletal muscle, fat tissue, kidneys, spleen, thymus and liver. Tissues were frozen (at approximately −80° C.) pending analysis. Samples were analysed by LC/MS/MS.
Plasma values of Compounds 1 and 2 falling below the limit of quantitation (LOQ) were set to zero. […] The following pharmacokinetic parameters were calculated: area under the plasma concentration versus time curve from time zero to the last measurable concentration time point (AUC0-t), area under the plasma concentration versus time curve extrapolated to infinity (AUCinf), maximum observed plasma concentration (Cmax), time of maximum plasma concentration (tmax), apparent first-order terminal elimination rate constant (kel), apparent first-order terminal elimination half-life will be calculated as 0.693/kel (t1/2). The systemic clearance (CL) of Compound 1 after intravenous administration was calculated using Dose/AUCinf. Pharmacokinetic parameters were calculated using Kinetica™ 4.1.1 (InnaPhase Corporation, Philadelphia, Pa.).

[2] = system: HT-29 (colorectal carcinoma); test: In vitro cytotoxic activity (GI50), method (b), propidium iodide; type: cell-based; conditions: Homo sapiens, 96 hrs
Procedure: (§1) Row H was filled wih medium only (150 μL, negative control-medium).

[3] = system: PC-3 (prostate adenocarcinoma); test: as above; type: cell-based; conditions: 96 hrs
Procedure: as §1

SF268 (CNS) = test: as above; type: cell-based; conditions: Homo sapiens, SF-268, 96 hrs
Procedure: as §1

[4] = system: MDA-MB-231 (mammary gland adenocarcinoma); test: as above; type: cell-based; conditions: Homo sapiens, 96 hrs
Procedure: as §1

[5] = system: HT-29, SF-268, PC-3, MDA-MB-231; test: Average GI50 over the four cell lines, method (b); type: cell-based; conditions: for GI50: values > 30 not considered
Procedure: as §1

[6] = female, Crl: CD1, mouse, iv, read-out: AUC

| SMILES | Cmax ([1]; female, Crl: CD1, mouse, ip) [µg/mL] | AUC [1, 6] [µM·h] | Cmax ([1]; female, Crl: CD1, mouse, iv) [µg/mL] | GI50 [2] [µM] | GI50 [3] [µM] | GI50 (SF268 (CNS)) [µM] | GI50 [4] [µM] | GI50 [5] [µM] | also measured |
| --- | --- | --- | --- | --- | --- | --- | --- | --- | --- |
| CC(C)=CCC/C(C)=C/CC/C(C)=C/CN1C(=O)c2cccc(O)c2Nc2c(O)cc(O)cc21 [Compound 1, 10-farnesyl-4,6,8-trihydroxy-5,10-dihydrodibenzo[b,e][1,4]diazepin-11-one] | 2.25 | 40.4 | 130 | 9.33 | 3.76 | 1.55 | 3.18 | 4.45 | Tumor volume (mm^3) (mean ± SEM) (C6 glioblastoma; 20 mg/kg i.p.): 1,721.5 ± 374.79 mm^3; % Inhibition (C6 glioblastoma; 20 mg/kg i.p.): 60.5%; Tumor volume (mm^3) (mean ± SEM) (C6 glioblastoma; 30 mg/kg i.p.): 1,131.6 ± 525.21 mm^3; % Inhibition (C6 glioblastoma; 30 mg/kg i.p.): 74.1%; Histological analysis of tumor sections (C6 glioblastoma; 20-30 mg/kg): cell density of tumor treated with Compound 1 appears decreased; also recorded: cell density was decreased and the nuclei of remaining tumor cells appeared larger and pycnotic; mean value of the tumor volume of all treated groups (C6 glioblastoma; 20-30 mg/kg i.p., compared to the saline group): significantly reduced; half-life ([1]; female, Crl: CD1, mouse, iv, I.V., read-out: half life t1/2 α): 0.0767 h; half-life ([1]; female, Crl: CD1, mouse, iv, I.V., read-out: half life t1/2 β (converted)): 2.56 h; AUC ([1]; ip): 9.5 ˜M·h; drug levels after oral administration ([1]; oral): moderate but sustained drug levels; orally bioavailable level ([1]; oral): 5-8% |
| CC(C)=CCC/C(C)=C/CC/C(C)=C/CN1C(=O)c2cccc(O)c2N(C)c2c(O)cc(O)cc21 [Compound 2, 10-farnesyl-4,6,8-trihydroxy-5-methyl-5,10-dihydro-dibenzo[b,e][1,4]diazepin-11-one] | 5.8 | 92.1 | 105 | 0.65 | 0.45 | 0.12 | 0.24 | 0.36 | half-life ([1]; female, Crl: CD1, mouse, ip, IP administration, read-out: half life (t1/2)): > 40 h; half-life ([1]; female, Crl: CD1, mouse, iv, IV administration, read-out: half life (t1/2)): > 40 h; AUC ([1]; female, Crl: CD1, mouse, ip, read-out: AUC): 58.8 µM·h; anticancer activity compared with Compound 1 ([5]; four cell lines): better anticancer activity than Compound 1 |
